According to the supplement of paper PMC10290057:
Where “and” joins values, the source holds several entries; their conditions need not be identical. Identical values can stand only once. Counter-ions that a name gives are not always drawn.

Experiments:
[1] = system: HCT116; experiment: AC50 cell viability (CellTiter-Glo); higher = less potent; settings: 48 h
[2] = system: HCT116; experiment: efficacy (fitted maximal change in viability relative to DMSO control); higher = less cytotoxic (negative = loss of viability); settings: 48 h
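For AC50 cell viability (CellTiter-Glo) in this document: HCT116 colorectal carcinoma cells screened at five concentrations per compound, luminescent viability scaled between DMSO wells and empty wells on each plate, curves fitted per compound.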
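For efficacy (fitted maximal change in viability relative to DMSO control) in this document: Luminescence-based viability readout, five doses per compound, normalized against on-plate DMSO and empty-well controls, followed by dose-response curve fitting for every drug.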

SMILES	AC50 cell viability [1]	efficacy [2]
CCCOc1ccc2[nH]c(NC(=O)OC)nc2c1 [Oxibendazole]	0.295 µM	-64.9%
O=C(c1ccc(Nc2nc(C3CC3)cn3c(-c4cn[nH]c4)cnc23)c(F)c1)N1CCOCC1 [P21d hydrochloride]	14.8 µM	-86.2%
C=CCc1cccc(/C=N/NC(=O)CN2CCN(Cc3ccccc3)CC2)c1O [PAC-1]	7.42 µM	-94.4%
COc1cccc2c1CCCC2CCCN1CCN(C2CCCCC2)CC1 (stereo not given) [PB-28]	16.6 µM	-91.3%
COc1ccc(-c2c(-c3ccc(O)cc3O)n[nH]c2C)cc1 [PDHK RIKEN]	20.9 µM	-47.1%
Cc1cc(C[S+](=O)([O-])c2ccccc2)cc(OCc2ccc(CN3CCC[C@@H]3CO)cc2)c1 [PF-543]	16.6 µM	-92.7%
O=C(Nc1cccnc1)N1CCC(Cc2cccc(Oc3ccc(C(F)(F)F)cn3)c2)CC1 [PF-3845]	13.2 µM	-82.1%
CCCOc1ccc(CCc2nc3cc(-c4c(C)noc4C)ccc3n2CCN2CCOCC2)cc1 [PF-CBP1]	14.8 µM	-94.5%
O=C(/C=C/c1ccc2ccc(C(F)(F)F)cc2n1)c1ccncc1 [PFK-158]	3.72 µM	-89%
CN1CCN(c2cc(C(=O)Nc3ccc4c(c3)-c3c(c(C(N)=O)nn3-c3ccc(F)cc3)CC4)c(Cl)cn2)CC1 [PHA-408]	20.9 µM	-98.2%
Oc1cccc(-c2nc(N3CCOCC3)c3oc4ncccc4c3n2)c1 [PI-103]	1.32 µM	-57.3%
Fc1ccc2[nH]ccc2c1-c1nc(N2CCOCC2)c2sc(CN3CCN(CC4CC4)CC3)cc2n1 [PI-3065]	18.6 µM	-95.1%
Cc1ccc([N+](=O)[O-])cc1[S+](=O)([O-])N(C)/N=C/c1cnc2ccc(Br)cn12 [PIK-75]	0.0525 µM	-60.8%
COC1=CC=C2/C3=N/CCN3\C(=N/C2=C1OC)NC(=O)C4=CC=CN=C4 [PIK-90]	0.263 µM	-37.1%
CC(=O)Nc1nc(C)c(-c2ccc(Cl)c([S+](=O)([O-])NCCO)c2)s1 [PIK-93]	8.33 µM	-85.9%
C[C@@H](Nc1ncnc2[nH]c(-c3ccc(O)cc3)cc12)c1ccccc1 [PKI-166]	14.8 µM	-84.7%
CCn1nnc2c(N3CCOCC3)nc(-c3ccc(NC(=O)Nc4ccc(C(=O)N5CCN(C)CC5)cc4)cc3)nc21 [PKI-402]	0.118 µM	-64.4%
FC(F)(F)c1ccc(C/N=c2\ccc(Cc3c[nH]c4ncccc34)c[nH]2)cc1 [PLX-647]	13.2 µM	-76.1%
CCC[S+](=O)([O-])Nc1ccc(F)c(C(=O)c2c[nH]c3ncc(Cl)cc23)c1F [PLX-4720]	16.6 µM	-38.4%
CCN(C)[S+](=O)([O-])Nc1ccc(F)c(C(=O)c2c[nH]c3ncc(-c4cnc(C5CC5)nc4)cc23)c1F [PLX-7904]	16.6 µM	-69.9%

SMILES	AC50 cell viability [1]	efficacy [2]
O=C(c1c(F)ccc(N[S+](=O)([O-])N2CC[C@@H](F)C2)c1F)c1c[nH]c2ncc(-c3cnc(C4CC4)nc3)cc12 [PLX-8394]	13.2 µM	-51.7%
Nc1ncnc2c1c(-c1cnc3[nH]ccc3c1)nn2C1CCCC1 [PP-121]	2.63 µM	-86.5%
CN[S+](=O)([O-])c1ccc2c(c1)/C(=C/c1[nH]c3c(c1CCCN1CCN(C)CC1)CCCC3)C(=O)N2 [PRP01-012]	14.8 µM	-103%
CCc1ccc(C(=O)Nc2cc(CN3CCN(C)CC3)cc(C(F)(F)F)c2)cc1C#Cc1cnc2ccnn2c1 [PRP003-013]	4.68 µM	-100%
COC(C)(C)CCn1nc(Nc2c(C)cccc2C)c2cnc(Nc3ccc(OCCN4CCCC4)c(F)c3)nc21 [PRP003-032]	14.8 µM	-122%
FC(F)(F)c1ccc(Nc2nc(-c3c(C(F)(F)F)nc4ccccn34)cs2)cc1 [PTC-691]	0.332 µM	-73.4%
CC(C)NCCCn1c(Sc2cc(Cl)cc(Cl)c2)nc2c(N)ncnc21 [PU-WS-13]	20.9 µM	-82.4%
CCC(C)SSc1ncc[nH]1 (stereo not given) [PX-12]	18.6 µM	-88.8%
COC1=CC=C2Nc3cc(Cl)ccc3C(N=C3C=C(CN4CCCC4)C(=O)C(CN4CCCC4)=C3)=C2N1 [PYRONARIDINE TETRAPHOSPHATE]	9.34 µM	-76.4%
C1=CC2=N/C(=N\c3ccc(OCCN4CCCC4)c(c3)COC/C=C/COCc3cccc2c3)N1 [Pacritinib]	1.86 µM	-89.9%
CC(=O)C\1=C(/C)C2=CN=C(NC3=CC=C(C=N3)N4CCNCC4)N=C2N(C5CCCC5)C1=O [Palbociclib]	16.6 µM	-109%
Cc1[nH]c2ccccc2c1CCNCc1ccc(/C=C/C(=O)NO)cc1 [Panobinostat]	0.0468 µM	-87.7%
COc1ccc(Cc2nccc3cc(OC)c(OC)cc23)cc1OC [Papaverine hydrochloride]	4.17 µM	-61.1%
CCCCc1ccc2[nH]c(NC(=O)OC)nc2c1 [Parbendazole]	0.105 µM	-63.1%
[2H]C([2H])([2H])C(O)([C@@H](C)/C=C/[C@@H](C)[C@H]1CC[C@H]2/C(=C/C=C3C[C@@H](O)C[C@H](O)C3)CCC[C@]12C)C([2H])([2H])[2H] [Paricalcitol-D6 (ABT-358)]	18.6 µM	-54%
ClC1=CC=C(CCCOC/2=N/NC(=O)C(=C2NCC3=CN=CC=C3)/Br)C=C1 [Parogrelil]	18.6 µM	-86.2%
C=C1C(=O)O[C@@H]2[C@H]3O[C@]3(C)CC/C=C(\C)CC[C@@H]12 [Parthenolide]	13.2 µM	-97.4%
C[C@@H]1CN[C@H]2[C@@H](C)[C@@]3(CC[C@H]4[C@@H]5CC[C@@H]6C[C@@H](CC[C@]6(C)[C@H]5C\C4=C(C)\C3)N[S+](C)([O-])=O)O[C@@H]2C1 [Patidegib]	14.8 µM	-94.4%
Cc1ccc(Nc2nccc(N(C)c3ccc4c(C)n(C)nc4c3)n2)cc1[S+](N)(=O)[O-] [Pazopanib]	5.25 µM	-51.5%
NC(=O)c1cnc2[nH]ccc2c1NC1C2CC3C[C@H]1CC(O)(C3)C2 (stereo not given in full) [Peficitinib]	7.42 µM	-67.2%

SMILES	AC50 cell viability [1]	efficacy [2]
CCOc1cc2ncc(C#N)c(Nc3ccc(F)c(Cl)c3)c2cc1NC(=O)/C=C/CN(C)C [Pelitinib]	5.9 µM	-97.7%
NC/1=N/C(=O)C2=C([NH]C=C2CCC3=CC=C(C=C3)C(=O)N[C@@H](CCC(O)=O)C(O)=O)N1 [Pemetrexed]	0.742 µM	-40.7%
N=C(N)c1ccc(OCCCCCOc2ccc(C(=N)N)cc2)cc1 [Pentamidine isethionate]	20.9 µM	-54.5%
C1CCC(C(CC2CCCCN2)C2CCCCC2)CC1 (stereo not given) [Perhexiline]	6.61 µM	-92.2%
Cc1ccc(-n2nc(C(C)(C)C)cc2N/C(O)=N/Cc2cc(F)ccc2Oc2ccc3c(cnn3CCO)c2)cc1 [Pexmetinib]	10.5 µM	-98.4%
N=C(N)NC(=N)NCCc1ccccc1 [Phenformin hydrochloride]	13.2 µM	-38.6%
CC1=CC=C(C=C1)N(C\C2=N\CCN2)C3=CC=CC(=C3)O [Phentolamine mesilate]	20.9 µM	-60%
Oc1cc(O)cc(/C=C/c2ccc(O)c(O)c2)c1 [Piceatannol]	26.3 µM	-69%
CC\1=C/C=C\C=[N]1[Pt](N)(Cl)Cl [Picoplatin]	20.9 µM	-50.8%
COc1cc([C@@H]2c3cc4c(cc3[C@H](O)[C@H]3COC(=O)[C@@H]23)OCO4)cc(OC)c1OC [Picropodophyllin]	0.417 µM	-56.6%
C[S+](=O)([O-])N1CCN(Cc2cc3nc(-c4cccc5[nH]ncc45)nc(N4CCOCC4)c3s2)CC1 [Pictilisib]	3.32 µM	-78.3%
COc1ccc(Cl)c(Nc2nc3ccccc3nc2N[S+](=O)([O-])c2cccc(NC(=O)C(C)(C)N)c2)c1 [Pilaralisib]	16.6 µM	-39.5%
O=C(NC[C@H](O)CO)c1ccncc1Nc1ccc(I)cc1F [Pimasertib]	0.118 µM	-44.3%
COC1=CC=C(C=C1)C2=NC3=CC(=CC=C3[NH]2)/C4=N/NC(=O)CC4C (stereo not given) [Pimobendan]	9.34 µM	-48.6%
c1ccc(-c2cc(CCC3CCNCC3)c3ccccc3n2)cc1 [Pipequaline]	16.6 µM	-108%
O=C(/C=C/C=C/c1ccc2c(c1)OCO2)N1CCCCC1 [Piperine]	20.9 µM	-46%
COc1cccc2c1C(=O)c1c(O)c3c(c(O)c1C2=O)C[C@@](O)(C(=O)CO)C[C@@H]3O[C@H]1C[C@H](N)[C@H](O[C@H]2CCCCO2)[C@H](C)O1 [Pirarubicin]	0.934 µM and 0.468 µM	-90.5% and -67.3%
O=C([O-])C[C@H](O)C[C@H](O)/C=C/c1c(C2CC2)nc2ccccc2c1-c1ccc(F)cc1 [Pitavastatin calcium]	14.8 µM	-103%
CN1CC/C(CC1)=C3\c4ccccc4CCc2sccc23 [Pizotifen]	23.5 µM	-73.5%
CC(C)(C)c1[nH]cnc1/C=c1\[nH]c(=O)/c(=C/c2ccccc2)[nH]c1=O [Plinabulin]	0.0525 µM	-58.4%
